# Results from BindingDB's records for doi:10.1016/j.bmcl.2016.03.009 (Toray Industries, 2016).
# Assay: Agonist activity at human IP receptor in platelet rich plasma assessed as inhibition of ADP-induced platelet aggregation preincubated for 1 min followed by addition of ADP by aggregometry
row,Structure (SMILES),IC50 [µM]
1,Cc1ccc(N(CCN2CCC(OCC(=O)O)CC2)C(=O)c2ccccc2)cc1,0.13
2,O=C(O)COC1CCN(CCN(C(=O)c2ccccc2)c2ccc(N3CCCC3)cc2)CC1,> 1
3,Cc1ccc(N(CCN2CCC(OCC(=O)O)CC2)C(=O)c2ccccc2)c(C)c1,> 1
4,O=C(O)COC1CCN(CCN(C(=O)c2ccccc2)c2ccccc2)CC1,3.2
5,Cc1ccccc1N(CCN1CCC(OCC(=O)O)CC1)C(=O)c1ccccc1,> 1
6,CCc1ccc(N(CCN2CCC(OCC(=O)O)CC2)C(=O)c2ccccc2)cc1,0.43
7,CC(C)c1ccc(N(CCN2CCC(OCC(=O)O)CC2)C(=O)c2ccccc2)cc1,> 1
8,Cc1cc(C)c(N(CCN2CCC(OCC(=O)O)CC2)C(=O)c2ccccc2)c(C)c1,> 1
9,CCCCc1ccc(N(CCN2CCC(OCC(=O)O)CC2)C(=O)c2ccccc2)cc1,> 1
10,Cc1cccc(N(CCN2CCC(OCC(=O)O)CC2)C(=O)c2ccccc2)c1,> 1
11,CCCc1ccc(N(CCN2CCC(OCC(=O)O)CC2)C(=O)c2ccccc2)cc1,1

# Further lines, results first:
row,IC50 [µM],Structure (SMILES)
1,> 30,O=C(O)COc1cccc(CCN(C(=O)c2ccccc2)c2ccc(Cl)cc2)c1
2,23,O=C(O)COC1CCN(CCN(C(=O)c2ccccc2)c2ccc(Cl)cc2)C1 (stereo not given)
3,0.32,O=C(O)COC1CCC(=CCN(C(=O)c2ccccc2)c2ccc(Cl)cc2)CC1 (stereo not given)
4,20,O=C(O)COc1ccc(CCCN(C(=O)c2ccccc2)c2ccc(Cl)cc2)cc1
5,0.44,O=C(O)COC1CCN(CCN(C(=O)c2ccccc2)c2ccc(Cl)cc2)CC1
6,0.74,O=C(O)COc1ccc(CCN(C(=O)c2ccccc2)c2ccc(Cl)cc2)cc1
7,0.013,O=C(O)COc1cccc2c1OCCN2CCN(C(=O)c1ccccc1)c1ccc(Cl)cc1
8,> 30,O=C(O)COc1ccc(CN(C(=O)c2ccccc2)c2ccc(Cl)cc2)cc1
9,0.9,COc1ccc(N(CCN2CCC(OCC(=O)O)CC2)C(=O)c2ccccc2)cc1
